Test results published in the Kinase Knowledgebase extract (Sharma et al. 2016).

Each molecule was assayed against MAPK14;MAPK11;MAPK12 (human) (UniProt Q16539) (assay: Inhibition of p38 Kinase Activity).
`CCc1ccc(C(N)=O)cc1Nc1nc(NCC(C)(C)C)nc(N[C@H]2CCNC2)n1` was tested, and the IC50 was under 1 µM. `Cc1ccc(C(N)=O)cc1N(C)c1nc(NC2CCCC2)nc(N[C@H]2CCNC2)n1` gave an IC50 of under 1 µM. Work on `Cc1ccc(C(N)=O)cc1Nc1nc(N[C@@H]2CCCC[C@H]2N)nc(N(C)CC(C)C)n1` yielded an IC50 of under 1 µM. For `Cc1cccc(NC(=O)c2ccc(C)c(Nc3nc(N[C@H]4CCNC4)nc(N(C)CC(C)(C)C)n3)c2)c1`, the IC50 was under 1 µM. `Cc1ccc(C(N)=O)cc1Nc1nc(NC2CCN(Cc3ccc(C(F)(F)F)cc3)C2)nc(N(C)CC(C)C)n1` (stereo unspecified) gave an IC50 of under 1 µM. Molecule `CC(C)c1nc(NCC(C)c2ccccc2)nc(Nc2ccc3ncsc3c2)n1` (stereo unspecified) has an IC50 of under 10 µM. With `CCN1CC[C@@H](Nc2nc(Nc3cc(C(=O)NOC)ccc3C)nc(N(C)CC(C)(C)C)n2)C1` the IC50 was under 1 µM. In the case of `Cc1ccc(C(N)=O)cc1Nc1nc(N[C@H]2CCN(C3CCCCC3)C2)nc(N(C)CC(C)C)n1`, the IC50 is reported as under 1 µM. With `CCNC(=O)c1ccc(C)c(Nc2nc(N[C@H]3CCNC3)nc(N(C)CC(C)(C)C)n2)c1` the IC50 was under 1 µM. `CC1(C)[C@H]2CC[C@@H](CNc3nc(Cl)nc(Nc4ccc5ncsc5c4)n3)[C@@H]1C2` showed an IC50 of under 10 µM. Work on `COC(=O)Nc1ccc(C)c(Nc2nc(N[C@H]3CCNC3)nc(N(C)CC(C)(C)C)n2)c1` yielded an IC50 of under 1 µM. With `CC1(C)[C@@H]2CC[C@@H](CNc3nc(Nc4cc(C(N)=O)ccc4Cl)nc(NC4CCNC4)n3)[C@H]1C2` (stereo partly specified) the IC50 was under 1 µM. For `CN(CC(C)(C)C)c1nc(N[C@@H]2CCNC2)nc(Sc2cc(C(N)=O)ccc2F)n1`, the IC50 was under 30 µM. In the case of `Cc1ccc(C(N)=O)cc1Nc1nc(N[C@H]2CCNC2)nc(N(C)CC(C)c2ccccc2)n1` (stereo partly specified), the IC50 is reported as under 1 µM. With `OC(CNc1nc(Cl)nc(Nc2ccc3ncsc3c2)n1)c1ccccc1` (stereo unspecified) the IC50 was under 10 µM. `CCC(C)CNc1nc(Nc2cc(C(N)=O)ccc2C)nc(N[C@H]2CCNC2)n1` (stereo partly specified) was tested, and the IC50 was under 1 µM. `CN(CC(C)(C)C)c1nc(Cc2cccc(C(N)=O)c2)nc(N[C@H]2CCNC2)n1` showed an IC50 of under 1 µM. `Cc1ccc(C(=O)NO)cc1Nc1nc(N[C@H]2CCNC2)nc(N(C)CC(C)(C)C)n1` was tested, and the IC50 was under 1 µM. `Cc1cc2c(cc1Nc1nc(N[C@H]3CCNC3)nc(N(C)CC(C)(C)C)n1)C(=O)NC2` gave an IC50 of under 1 µM. In the case of `Cc1ccc(C(N)=O)cc1Nc1nc(N[C@H]2CN[C@@H](CO)C2)nc(N(C)CC(C)(C)C)n1`, the IC50 is reported as under 1 µM. `CC(CNc1nc(Nc2ccc3ncsc3c2)nc(N2CCN(C(=O)c3ccccc3)CC2)n1)c1ccccc1` (stereo unspecified) showed an IC50 of under 10 µM. In the case of `Cc1ccc(C(N)=O)cc1Nc1nc(N[C@H]2CCN(C3CCCC3)C2)nc(N(C)CC(C)C)n1`, the IC50 is reported as under 1 µM. Molecule `CC(=O)N1CCN(c2nc(NC[C@@H]3CC[C@H]4C[C@@H]3C4(C)C)nc(Nc3ccc4ncsc4c3)n2)CC1` has an IC50 of under 10 µM. `Cc1ccc(-c2nc3ccccc3[nH]2)cc1Nc1nc(N[C@@H]2CCNC2)nc(N(C)CC(C)(C)C)n1` was tested, and the IC50 was under 1 µM. `CCCCOc1nc(Nc2cc(C(N)=O)ccc2C)nc(NC2CCCC2)n1` showed an IC50 of under 1 µM. With `CN(CC1CC[C@H]2C[C@@H]1C2(C)C)c1nc(Nc2ccc3ncsc3c2)nc(N2CCN(C(=O)CCC(=O)O)CC2)n1` (stereo partly specified) the IC50 was under 10 µM. `Cc1ccc(C(N)=O)cc1Nc1nc(O[C@H]2CCNC2)nc(N(C)CC(C)(C)C)n1` showed an IC50 of under 1 µM. `CC(C)OCCNc1cc(Cl)nc(-n2cnc3ccccc32)n1` was tested, and the IC50 was under 10 µM. `Cc1ccc(C(N)=O)cc1Nc1nc(N[C@H]2CCN(C3CCC3)C2)nc(N(C)CC(C)C)n1` was tested, and the IC50 was under 1 µM. `CN(CCN(C)c1nc(NCC2CCC3CC2C3(C)C)nc(Nc2ccc3ncccc3c2)n1)C(=O)CCC(=O)O` (stereo unspecified) was tested, and the IC50 was under 10 µM. Molecule `Cc1ccc(C(N)=O)cc1Nc1nc(NC2CCNC2)nc(NC2CCN(Cc3ccccc3)C2)n1` (stereo unspecified) has an IC50 of under 1 µM. In the case of `Cc1ccc(C(N)=O)cc1Sc1nc(N[C@@H]2CCNC2)nc(N(C)CC(C)(C)C)n1`, the IC50 is reported as under 30 µM. Work on `Cc1ccc(C(N)=O)cc1Nc1nc(N[C@H]2CCNC2)nc(SCC(C)C)n1` yielded an IC50 of under 1 µM. `CC(CN(C)c1nc(Nc2ccc3ncsc3c2)nc(N(C)C)n1)c1ccccc1` (stereo unspecified) showed an IC50 of under 10 µM. In the case of `CCONC(=O)c1ccc(C)c(Nc2nc(N[C@H]3CCNC3)nc(N(C)CC(C)(C)C)n2)c1`, the IC50 is reported as under 1 µM. In the case of `CNc1nc(Nc2cc(C(=O)NOC)ccc2C)nc(N(C)CC(C)(C)C)n1`, the IC50 is reported as under 1 µM.
